TGI and GI50 data for 13 compounds are collected here from PubChem BioAssay (NCI).

Test systems include A498 renal; SK-MEL-2 melanoma; T-47D breast; UO-31 renal; SR leukemia; SK-MEL-5 melanoma; HCT-15 colon; TK-10 renal; MDA-MB-231 breast; LOX IMVI melanoma.
Common to all, as to assay: inhibition of tumour cell growth, NCI panel, 48 h

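Cells were grown in 96-well plates and exposed to each compound for 48 hours at five concentrations; endpoints were interpolated linearly between bracketing concentrations, or set to the highest concentration if not reached. GI50: concentration for 50% inhibition of growth. At the TGI there is no net growth.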

As for `COC1C(O)CC(OC2C(C)OC(Oc3cc(O)c4c(O)c5c(cc4c3)C[C@@H]([C@H](OC)C(=O)[C@@H](O)[C@@H](C)O)[C@H](OC3CC(OC4CC(OC6CC(C)(O)C(O)C(C)O6)C(O)C(C)O4)C(O)C(C)O3)C5=O)CC2OC(C)=O)OC1C` (stereo partly drawn), the TGI with A498 renal, with SK-MEL-2 melanoma, with T-47D breast, in the experiment on UO-31 renal, in the experiment on SR leukemia and in the experiment with SK-MEL-5 melanoma was above 100 µM throughout. In addition, the TGI with HCT-15 colon, in the experiment on TK-10 renal, in the experiment with MDA-MB-231 breast and with LOX IMVI melanoma was above 100 µM in each case.

In the case of `Cc1c(C)c(C)c(-n2[nH]c(=O)n(C)c2=O)c(C)c1C`, the TGI in the experiment with A498 renal, in the experiment with SK-MEL-2 melanoma, in the experiment with T-47D breast, in the experiment with UO-31 renal, with SR leukemia and with SK-MEL-5 melanoma was above 100 µM in each case. Also, the TGI with HCT-15 colon, in the experiment on TK-10 renal, with MDA-MB-231 breast and in the experiment with LOX IMVI melanoma was above 100 µM throughout.

As for `COc1cc2c3cc1Oc1c(O)c(OC)cc4c1[C@H](Cc1ccc(cc1)Oc1cc(ccc1O)C[C@H]3N(C)CC2)N(C)CC4`, the TGI in the experiment on A498 renal stood at 31.5 µM; with SK-MEL-2 melanoma it was 25.6 µM; in the experiment with T-47D breast, 46.1 µM; in the experiment on UO-31 renal, 44.8 µM; in the experiment with SR leukemia, 9.15 µM; in the experiment with SK-MEL-5 melanoma, 16.6 µM. The TGI in the experiment on HCT-15 colon is 59.5 µM; in the experiment on TK-10 renal, 48.6 µM; with MDA-MB-231 breast it was 22.8 µM; with LOX IMVI melanoma, 17.8 µM.

On to `O=C(Nc1ccccc1)O/N=C(/CBr)c1ccccc1`, for which the TGI stood at 64.1 µM in the experiment on A498 renal; 30.9 µM in the experiment on SK-MEL-2 melanoma; 32.6 µM in the experiment with T-47D breast; 32.4 µM in the experiment on UO-31 renal; 44.2 µM in the experiment on SR leukemia; 28.1 µM in the experiment on SK-MEL-5 melanoma. Moreover, the TGI in the experiment with HCT-15 colon was 22.2 µM; in the experiment on TK-10 renal it was 33.8 µM; in the experiment with MDA-MB-231 breast, 29.3 µM; with LOX IMVI melanoma, 16.3 µM.

For `COC(=O)c1cc(C)ccc1CC(Cc1cccc(C)c1)C(=O)OC` (stereo not drawn), the TGI with A498 renal, with SK-MEL-2 melanoma, in the experiment on T-47D breast, with UO-31 renal, in the experiment on SR leukemia and in the experiment with SK-MEL-5 melanoma was above 100 µM each time. Also, the TGI in the experiment on HCT-15 colon, in the experiment with TK-10 renal, in the experiment on MDA-MB-231 breast and in the experiment on LOX IMVI melanoma was above 100 µM throughout.

Consider `COc1cc2c(cc1C[N+](C)(C)CSc1ccccc1)-c1ccccc1CC2`, for which the TGI in the experiment with A498 renal was 37.9 µM; in the experiment with SK-MEL-2 melanoma, 5.21 µM; in the experiment on T-47D breast, 16.2 µM; in the experiment on UO-31 renal it was 28.6 µM; in the experiment with SR leukemia it was 7.55 µM; with SK-MEL-5 melanoma, 2.39 µM. Besides, the TGI in the experiment on HCT-15 colon turned out to be 30.2 µM; with TK-10 renal, 23.1 µM; in the experiment on MDA-MB-231 breast, 10 µM; in the experiment on LOX IMVI melanoma, 14.6 µM.

Take `Cn1ccnc1Sc1ccc(/C=N/NC(=O)c2ccccc2O)cc1[N+](=O)[O-]`: the TGI in the experiment on A498 renal, with SK-MEL-2 melanoma, in the experiment with T-47D breast, with UO-31 renal, with SR leukemia and in the experiment on SK-MEL-5 melanoma was above 100 µM throughout. Moreover, the TGI in the experiment with HCT-15 colon, in the experiment on TK-10 renal, with MDA-MB-231 breast and with LOX IMVI melanoma was above 100 µM each time.

For `Cn1ccnc1S/C(=C\C=C(C#N)C#N)c1ccc(Cl)cc1`, the TGI in the experiment on A498 renal was 3.16 µM; in the experiment with SK-MEL-2 melanoma it was above 45.5 µM; in the experiment with T-47D breast, above 100 µM; in the experiment with UO-31 renal, 9.34 µM; in the experiment with SR leukemia, 0.367 µM; in the experiment with SK-MEL-5 melanoma, 3.59 µM. Besides, the TGI is 9.11 µM with HCT-15 colon, 2.81 µM in the experiment on TK-10 renal, 15 µM in the experiment on MDA-MB-231 breast and 0.443 µM with LOX IMVI melanoma. Further, the GI50 is 5.38 µM with SK-MEL-2 melanoma, 4.15 µM in the experiment with MDA-MB-231 breast and 0.0671 µM in the experiment with LOX IMVI melanoma.

For `COc1cc(-c2nc3cc(F)ccc3s2)ccc1O`, the TGI in the experiment with A498 renal is 83.8 µM; in the experiment with SK-MEL-2 melanoma, above 100 µM; with T-47D breast, 15.3 µM; with UO-31 renal, above 100 µM; in the experiment with SR leukemia, 75.7 µM; with SK-MEL-5 melanoma it was above 100 µM. In addition, the TGI with HCT-15 colon, in the experiment with TK-10 renal, in the experiment with MDA-MB-231 breast and with LOX IMVI melanoma was above 100 µM each time.

Regarding `N=C(N)SCCON1C(=O)c2ccccc2C1=O`, the TGI in the experiment with A498 renal, in the experiment on SK-MEL-2 melanoma, in the experiment with T-47D breast, in the experiment on UO-31 renal, in the experiment with SR leukemia and with SK-MEL-5 melanoma was above 100 µM in each case. For the same compound, the TGI in the experiment with HCT-15 colon, with TK-10 renal, in the experiment with MDA-MB-231 breast and in the experiment on LOX IMVI melanoma was above 100 µM each time.

As to `Cc1ccc(S(=O)(=O)N/C(=C\C=C\c2ccccc2)C(=O)C(C)(C)C)cc1`, the TGI in the experiment on A498 renal, with SK-MEL-2 melanoma, with T-47D breast, with UO-31 renal, in the experiment on SR leukemia and in the experiment with SK-MEL-5 melanoma was above 100 µM throughout. The TGI in the experiment with HCT-15 colon, in the experiment with TK-10 renal, in the experiment with MDA-MB-231 breast and in the experiment on LOX IMVI melanoma was above 100 µM throughout.

In the case of `O=C(Nc1ccccc1F)c1c(O)nc2sccn2c1=O`, the TGI in the experiment on A498 renal, in the experiment with SK-MEL-2 melanoma, with T-47D breast, in the experiment on UO-31 renal, in the experiment with SR leukemia and in the experiment with SK-MEL-5 melanoma was above 10 µM throughout. The TGI in the experiment on HCT-15 colon, in the experiment with TK-10 renal, in the experiment on MDA-MB-231 breast and with LOX IMVI melanoma was above 10 µM in each case.

`S=C1c2ccccc2NC(=NC2CCCC2)C2CSCN12` (stereo not drawn): the TGI with A498 renal, with SK-MEL-2 melanoma, with T-47D breast, with UO-31 renal, in the experiment on SR leukemia and in the experiment with SK-MEL-5 melanoma was above 100 µM throughout. In addition, the TGI with HCT-15 colon, with TK-10 renal, with MDA-MB-231 breast and in the experiment with LOX IMVI melanoma was above 100 µM each time.
